In BindingDB's records for doi:10.1074/jbc.M703586200 (University of Minnesota, 2007):

What was measured:
Tissue factor [1] = biological target: T1, Tissue factor (Homo sapiens, UniProt P13726); experiment: Inhibition of TNF-alpha-induced tissue factor activity in HUVEC preincubated for 4 hrs assessed after 4 hrs of TNFalpha challenge by one stage clotting assay
Tissue factor [2] = biological target: T1, Tissue factor; experiment: Inhibition of LPS-induced tissue factor activity in HUVEC preincubated for 4 hrs assessed after 4 hrs of LPS challenge by one stage clotting assay

T1 sequence (P13726 whole entry): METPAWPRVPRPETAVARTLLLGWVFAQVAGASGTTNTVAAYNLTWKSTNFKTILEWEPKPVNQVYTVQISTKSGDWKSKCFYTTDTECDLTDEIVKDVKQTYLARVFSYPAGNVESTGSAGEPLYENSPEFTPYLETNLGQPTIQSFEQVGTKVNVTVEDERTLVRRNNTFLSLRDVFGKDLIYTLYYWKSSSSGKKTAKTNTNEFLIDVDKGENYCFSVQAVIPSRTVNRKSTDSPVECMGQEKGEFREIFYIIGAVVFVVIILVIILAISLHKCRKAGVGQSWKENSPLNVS

Structure (SMILES)	IC50 (Tissue factor [1]) [µM]	IC50 (Tissue factor [2]) [µM]
CC(=CC(C)C=CC(=O)NO)C(=O)c1ccc(N(C)C)cc1 (centres undefined)	0.03	–
CCCC(=O)O	2000	1000
CCC(=O)CCCCC[C@@H]1NC(=O)[C@H]2CCCCN2C(=O)[C@H]([C@@H](C)CC)NC(=O)[C@H](Cc2cn(OC)c3ccccc23)NC1=O [(6S,9S,12S,14aR)-6-((S)-sec-Butyl)-9-(1-methoxy-1H-indol-3-ylmethyl)-12-(6-oxo-octyl)-decahydro-4a,7,10,13-tetraaza-benzocyclododecene-5,8,11,14-tetraone]	0.2	0.15
CCCC(CCC)C(=O)O [Valproinsaeure]	2000	1500
Nc1ccccc1NC(=O)c1ccc(CNC(=O)OCc2cccnc2)cc1 [benzamide-type inhibitor, 3]	10	6
